The values below come from US5863716A, “Treatment of plasmodium” (The Leland Stanford Junior University Board of Trustees, priority 1997, dated 1999).

Experiment [1] concerns P. falciparum strain FCB. The experiment in a line: Inhibition of intraerythrocytic growth in culture, Giemsa staining after 24 h. It counts as cell-based, Plasmodium falciparum. As to conditions: Plasmodium falciparum; 5 μM added to 0-12 h rings; Giemsa staining after 24 h; read-out: [%] inhibition of growth. The text has this: P. falciparum strain FCB was used for all experiments and cultured in vitro in according to a modification of the method of Trager and Jensen left off. Trager, W. and Jensen, J. B. (1976) Human malaria in continuous culture., Science (Wash. D.C.) 193: 673-675 Haldar, K., Ferguson, M. A. J. and Cross, G. A. M. (1985) Acylation of a Plasmodium falciparum merozoite surface antigen via sn-1, 2-diacyl glycerol. J. Biol. Chem. 260; 4969-4974. The culture medium contained RPMI 1640 supplemented with 25 Mm hepes, Ph 7.4/11 […] glucose/92 μM hypoxanthine/0.18% sodium bicarbonate/25 μM gentamicin and 10% AB^+ human sera. The parasites were grown in A^+ erythrocytes at 2.5-5% hematocrit. Parasite cultures were synchronized by separation of the early and late stages on a Percoll gradient. The subsequent reincubation of these stages in culture were used to obtain cells 12-24 h in the life cycle. Inhibition of sphingomyelin biosynthetic activity using 5 μM of the various compounds was carried out as described in Example 1. 5 μM of the various compounds were added to 0-12 h rings in the culture medium and cells were examined by Giemsa staining after 24 h.

The subject of experiment [2] is P. chabaudi. The experiment in a line: Single cycle of expansion in culture, mouse malaria. The class given is cell-based. The source says:
(§1) The human malaria parasite P. falciparum can be grown in monkeys but not in rodents. However, since primates are expensive, rodents are used as a animal first screen. P. yoelii and P. chabaudi are commonly used strains of mouse malaria.

Experiment [3] concerns P. yoelii. Described as above. It counts as cell-based.
Source text: as §1

For experiment [4], the system named is protein synthesis. The experiment in a line: Effect on protein synthesis. The class given is cell-based.
The test system of experiment [5] is sphingomyelin synthase. In words: Inhibition of sphingomyelin biosynthesis in hypotonically lysed infected erythrocytes and fractions. The class given is biochemical, Plasmodium falciparum. The procedure: 1×10^8 infected cells 24 h after invasion were washed serum-free in RPMI 1640 and preincubated for thirty min at 37° C. in 1 ml of RPMI 1640 containing 0-5 μM or 0-500 μM of PPMP. (C6-NBD-ceramide (N-[7-(4-nitrobenzo-2-oxa-1,3-diazide)]-6-aminocaproyl-D-erythro-sphingosine) was added to each sample at a final concentration of 5 μM, the samples further incubated for 30 min at 37° C. and cellular lipids extracted. C6-NBD-sphingomyelin was resolved by TLC and quantitated by fluorescence spectrophotometry as described previously. Bligh, E. G. and Dyer, W. Y. (1959) A rapid method for total lipid extraction and purification., Can. J. Biochem. Physiol. 37: 911-917. Haldar, K., Uyetake, L., Ahori, N., Elmendorf, H. G. and Lu, W-1. (1991) The accumulation and metabolism of a fluorescent ceramide derivative in Plasmodium falciparum--infected erythrocytes., Mo. Biochem. Parasitol. 49: 143-156. Elmendorf, H. G. and Haldar, K. (1994) Plasmodium falciparum exports the Golgi marker sphingomyelin synthase into a tubovesicular network in the cytoplasm of mature erythrocytes., J. Cell Biol. 124: 449-462. Each value obtained represented the mean of triplicate determinations from five experiments. The arrow bars indicate the standard deviations. The results are depicted in FIG. 1.
Cells were washed serum-free in PBS and intact cells were incubated in PBS. Cells were lysed in 10 volumes of hypotonic buffer. Pellets and supernatants were separated by centrifugation at 10^4 ×G for 10 min at 4° C. Inhibition of sphingomyelin biosynthetic activity was carried out as described in Example 1. Glutamate dehydrogenase, a parasite cytosolic activity, was assayed using 10 μM alpha-ketoglutarate and 0.1 μM NADPH for 1 h at 37° C. by measuring the absorption at 340 nm in a spectrophotometer. The following table indicates the results

A word on the inhibition: it is the relative decrease from the control value, in per cent. `CCCCCCCCCCCCCCCC(=O)N[C@H](CN1CCOCC1)[C@H](O)c1ccccc1` (relative stereo) [PPMP, dl-threo-1-phenyl-2-palmitoylamino-3-morpholino-1-propanol]: the inhibition at 5 µM in experiment [1] was determined as 100%. Besides, the “effect on parasite in a single cycle of expansion in culture” value in experiment [2] and in experiment [3] was “inhibited” in each case. Further, the “inhibition of protein synthesis” value in experiment [4] is “not inhibitory”. Further, the “inhibition of sphingomyelin biosynthesis at 5 μM PPMP [%]” value is recorded as 33% in experiment [5] (hypotonic lysates), 30% in experiment [5] (pellet of lysate (10^4 x G)) and 3% in experiment [5] (supernatant of lysate (10^4 x G)).
